Results: US20250213601A1 (priority 2022, published 2025)
Where “and” joins values, the source holds several entries; their conditions need not be identical. Identical values can stand only once.

Columns and labels:
[1] = Ivermectin concentration in the blood plasma of cattle after oral administration; format: in vivo; conditions: oral 600 μg/kg (per pure IVM)
Description: Cattle were divided into 2 groups of 1 animals each. Free Ivermectin (IVM) and compound of FORMULA I were orally administered to starving cattle. Blood samples were withdrawn from the jugular vein at appropriate time intervals after administration (0, 4, 20 h).
Fluorescence detection was set at an excitation and emission wavelength of 365 and 475 nm, respectively. The mobile phase consisted of acetonitrile, methanol and distilled water (50:45:5, v/v/v), running through the column at a flow rate of 1.5 ml/minute. The chromatographic analysis was operated at 25° C. Sample preparation (100 μl plasma) was done by a single stepprotein precipitation with acetonitrile, followed by derivatization with 100 μl of N-methylimidazole solution in acetonitrile (1:1, v/v) and 150 μl of trifluoroacetic anhydrous solution in acetonitrile (1:2, v/v). Calibration curve over the concentration range of 20-8,000 ng/ml plasma was linear with correlation coefficient better than 0.995.
All the blood samples were centrifuged at 3000 rpm for 15 min to obtain […]. Cattle plasma samples (100 μL each) were placed in 1.5 mL Eppendorf tubes, and then the samples underwent protein precipitation. The samples were vortexed for 1 min and centrifuged at 13,400 rpm for 10 min 20 μL of the supernatant was injected into the HPLC.

[2] = system: Syrian hamsters; assay: Oral toxicity of solid dispersion; format: in vivo; conditions: per pure ivermectin, FORMULA I compound per Example 1 No 2 (apple pectin 1:5)
[3] = system: SARS-CoV-2; conditions: in vitro, inhibition of replication; cited from earlier work
[4] = system: Influenza VLPs (avian influenza A); conditions: 10 μM; cited from earlier work
[5] = system: Dengue virus (NGC); conditions: cited from earlier work
[6] = system: Dengue virus (EDEN-2); conditions: cited from earlier work
[7] = system: Dengue virus (EDEN-3); conditions: cited from earlier work
[8] = system: Dengue virus (EDEN-4); conditions: cited from earlier work
[9] = system: West Nile virus (NY99); conditions: cited from earlier work
[10] = system: West Nile virus (MRM61C); conditions: cited from earlier work
[11] = system: Zika virus (Asian/Cook Islands); conditions: cited from earlier work
[12] = system: Hendra (Hendra virus/Australia/Horse); conditions: estimated; read-out: est. EC50; cited from earlier work
[13] = system: Adenovirus (HAdV-C5); conditions: cited from earlier work
[14] = system: Pseudorabies virus; conditions: estimated; read-out: est. EC50; cited from earlier work
[15] = standard tablet form, for 5 days; cited from earlier work
[16] = system: Caco-2 cell line; assay: Permeability through a monolayer of Caco-2 cells; conditions: bottom of Transwell well, 3 μM (per pure IVM) in HBSS on top

In the case of `CCC(C)C1OC2(CCC1C)CC1CC(CC=C(C)C(OC3CC(OC)C(OC4CC(OC)C(O)C(C)O4)C(C)O3)C(C)C=CC=C3COC4C(O)C(C)=CC(C(=O)O1)C34O)O2` (centres unmarked) [ivermectin, Ivermectin], the “C1, 0 h (ivermectin concentration in plasma)” value ([1]; 0 h, FORMULA I compound per Example 1 No 1 (polyvinylpyrrolidone 1:10), IVM = milled free ivermectin) is reported as 0 ± 0.15 ng/mL, the “C2, 4 h (ivermectin concentration in plasma)” value ([1]; 4 h, FORMULA I compound per Example 1 No 1) is reported as 307.3 ± 46.1 ng/mL and the “C3, 20 h (ivermectin concentration in plasma)” value ([1]; 20 h, FORMULA I compound per Example 1 No 1) is reported as 104.4 ± 15.6 ng/mL. The Cmax ([1]; FORMULA I compound per Example 1 No 1) was 350 ± 50 nM, the LD50 [2] was 62 mg/kg and the EC50 [3] was 2400 nM and 2200 nM and 2800 nM. The EC90 [3] was 5000 nM, the Inhibition [4] was 10 μM total inhibition and the Inhibition ([5]; 50 μM) was “total inhibition”. For the same compound, the EC50 [5] was 400 nM and 600 nM, the EC50 [6] was 2100 nM and 1700 nM and the EC50 [7] was 1700 nM. For the same compound, the EC50 [8] was 1900 nM, the EC50 [9] was 4000 nM and the EC50 [10] was 1000 nM and 500 nM. The EC50 [11] was 1300 nM and 1600 nM, the EC50 [12] was roughly 2000 nM and the EC50 [13] was 2500 nM. For the same compound, the EC50 [14] was roughly 800 nM, the “lung Cmax” value [15] was 400 to 900 nM and the “Concentrartion of IVM” value ([16]; 20 min, FORMULA I compound per Example 1 No 2 (apple pectin 1:5)) was 50 ng/mL. The “Concentrartion of IVM” value ([16]; 40 min, FORMULA I compound per Example 1 No 2) was 90 ng/mL, the “Concentrartion of IVM” value ([16]; 60 min, FORMULA I compound per Example 1 No 2) was 150 ng/mL and the “Concentrartion of IVM” value ([16]; 80 min, FORMULA I compound per Example 1 No 2) was 190 ng/mL. For the same compound, the “Concentrartion of IVM” value ([16]; 100 min, FORMULA I compound per Example 1 No 2) was 210 ng/mL and the “Concentrartion of IVM” value ([16]; 120 min, FORMULA I compound per Example 1 No 2) was 250 ng/mL.
